Test results published in ChEMBL document CHEMBL1909046, “DrugMatrix in vitro pharmacology data”.
pIC50, pKi: −log10 of the molar value.

Tests used:
[1] = biological target: T1, 3-hydroxy-3-methylglutaryl-coenzyme A reductase (Homo sapiens, UniProt P04035); set-up: species or system Escherichia coli;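 note: enzyme inhibition assay of HMG-CoA reductase using radiolabeled [14C]HMG-CoA as substrate; in other assays of this panel Not Active means under 50% inhibition at 10 µM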
T1 sequence (P04035 whole entry): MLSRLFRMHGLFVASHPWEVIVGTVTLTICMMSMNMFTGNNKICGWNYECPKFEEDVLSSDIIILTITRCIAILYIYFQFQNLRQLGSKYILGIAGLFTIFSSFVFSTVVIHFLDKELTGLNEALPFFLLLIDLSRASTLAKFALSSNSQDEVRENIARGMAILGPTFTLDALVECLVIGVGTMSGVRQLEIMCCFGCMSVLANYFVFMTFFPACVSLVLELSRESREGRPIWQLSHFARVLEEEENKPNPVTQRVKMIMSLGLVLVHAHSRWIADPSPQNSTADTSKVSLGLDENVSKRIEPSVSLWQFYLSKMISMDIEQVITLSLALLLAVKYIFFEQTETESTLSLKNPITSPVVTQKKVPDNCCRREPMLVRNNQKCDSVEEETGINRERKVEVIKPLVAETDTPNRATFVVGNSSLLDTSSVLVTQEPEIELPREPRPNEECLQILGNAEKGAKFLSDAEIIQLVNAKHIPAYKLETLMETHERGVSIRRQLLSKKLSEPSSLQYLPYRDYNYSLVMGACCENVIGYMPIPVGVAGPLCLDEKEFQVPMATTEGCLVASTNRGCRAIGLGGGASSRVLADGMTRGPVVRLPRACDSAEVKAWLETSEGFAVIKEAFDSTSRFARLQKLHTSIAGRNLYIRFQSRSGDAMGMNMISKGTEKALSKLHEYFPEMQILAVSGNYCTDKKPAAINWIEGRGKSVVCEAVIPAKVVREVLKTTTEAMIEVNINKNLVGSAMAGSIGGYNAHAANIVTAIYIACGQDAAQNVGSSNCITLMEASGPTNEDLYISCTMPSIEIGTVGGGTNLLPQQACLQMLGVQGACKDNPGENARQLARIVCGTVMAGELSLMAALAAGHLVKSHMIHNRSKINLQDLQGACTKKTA

Estrogen receptor beta = Estrogen receptor beta (Homo sapiens, UniProt Q92731); details: sf9; note: in other assays of this panel Not Active means under 50% inhibition at 10 µM
Sequence of Estrogen receptor beta (Q92731 whole entry): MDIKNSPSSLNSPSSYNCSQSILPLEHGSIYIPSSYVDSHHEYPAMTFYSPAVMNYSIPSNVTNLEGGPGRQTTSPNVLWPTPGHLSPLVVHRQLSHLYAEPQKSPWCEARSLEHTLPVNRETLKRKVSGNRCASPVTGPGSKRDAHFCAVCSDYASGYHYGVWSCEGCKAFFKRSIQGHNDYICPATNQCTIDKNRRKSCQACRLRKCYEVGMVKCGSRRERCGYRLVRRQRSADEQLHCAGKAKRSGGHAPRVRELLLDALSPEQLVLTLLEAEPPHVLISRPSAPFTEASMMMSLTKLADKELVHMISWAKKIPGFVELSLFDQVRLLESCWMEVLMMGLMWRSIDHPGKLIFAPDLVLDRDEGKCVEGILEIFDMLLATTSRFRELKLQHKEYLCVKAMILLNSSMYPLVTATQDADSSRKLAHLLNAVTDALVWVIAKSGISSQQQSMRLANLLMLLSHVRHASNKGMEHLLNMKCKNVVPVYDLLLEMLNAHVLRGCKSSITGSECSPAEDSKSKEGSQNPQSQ

Progesterone receptor = biological target: T2, Progesterone receptor (Bos taurus, UniProt Q690N0); assay: DRUGMATRIX: Progesterone radioligand binding (ligand: [3H] R-5020); type: tissue-based, Uterus; details: Not Active = under 50% inhibition at 10 µM; for pIC50: read-out: IC50; for pKi: read-out: Ki
T2 sequence (Q690N0 whole entry): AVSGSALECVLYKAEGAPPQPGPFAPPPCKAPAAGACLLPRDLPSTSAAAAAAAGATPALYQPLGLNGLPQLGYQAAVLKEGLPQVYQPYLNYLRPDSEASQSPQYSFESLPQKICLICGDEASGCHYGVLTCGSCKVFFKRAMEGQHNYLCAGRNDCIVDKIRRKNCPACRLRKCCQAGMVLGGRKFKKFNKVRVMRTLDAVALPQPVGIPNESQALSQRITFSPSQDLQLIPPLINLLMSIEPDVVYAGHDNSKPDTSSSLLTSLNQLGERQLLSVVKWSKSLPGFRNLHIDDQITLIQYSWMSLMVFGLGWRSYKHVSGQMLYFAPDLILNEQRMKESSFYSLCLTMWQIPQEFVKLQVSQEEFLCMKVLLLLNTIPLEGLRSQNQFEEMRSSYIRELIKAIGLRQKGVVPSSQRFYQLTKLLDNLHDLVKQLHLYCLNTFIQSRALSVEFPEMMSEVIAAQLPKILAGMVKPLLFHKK

[2] = DRUGMATRIX: Imidazoline I2, Central radioligand binding (ligand: [3H] Idazoxan); type: cell membranes, Rattus norvegicus, Wistar, Cerebral cortex, Membrane; details: Not Active = under 50% inhibition at 10 µM
[3] = DRUGMATRIX: Phosphodiesterase PDE3 enzyme inhibition (substrate: [3H]cAMP + cAMP); type: tissue-based, Homo sapiens; details: platelet, Not Active = under 50% inhibition at 10 µM; for pIC50: read-out: IC50
Endothelin-1 receptor = biological target: T3, Endothelin-1 receptor (Homo sapiens, UniProt P25101); type: cell membranes, Membrane; details: cho-k1; note: in other assays of this panel Not Active means under 50% inhibition at 10 µM
T3 sequence (P25101 whole entry): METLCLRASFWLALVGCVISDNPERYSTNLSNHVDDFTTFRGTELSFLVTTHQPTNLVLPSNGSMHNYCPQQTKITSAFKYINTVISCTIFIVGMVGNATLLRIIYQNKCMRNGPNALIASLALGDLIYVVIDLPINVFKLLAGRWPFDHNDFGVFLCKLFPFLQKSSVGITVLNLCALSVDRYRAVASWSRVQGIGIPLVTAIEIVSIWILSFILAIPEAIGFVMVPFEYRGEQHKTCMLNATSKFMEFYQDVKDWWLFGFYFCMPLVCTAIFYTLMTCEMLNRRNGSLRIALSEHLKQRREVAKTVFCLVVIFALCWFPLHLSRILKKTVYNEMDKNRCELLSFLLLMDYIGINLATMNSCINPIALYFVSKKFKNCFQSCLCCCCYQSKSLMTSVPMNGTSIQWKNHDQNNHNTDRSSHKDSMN

Cytochrome P450 2C19 = Cytochrome P450 2C19 (Homo sapiens, UniProt P33261); details: bti-tn-5b1-4; note: in other assays of this panel Not Active means under 50% inhibition at 10 µM
Sequence of Cytochrome P450 2C19 (P33261 whole entry): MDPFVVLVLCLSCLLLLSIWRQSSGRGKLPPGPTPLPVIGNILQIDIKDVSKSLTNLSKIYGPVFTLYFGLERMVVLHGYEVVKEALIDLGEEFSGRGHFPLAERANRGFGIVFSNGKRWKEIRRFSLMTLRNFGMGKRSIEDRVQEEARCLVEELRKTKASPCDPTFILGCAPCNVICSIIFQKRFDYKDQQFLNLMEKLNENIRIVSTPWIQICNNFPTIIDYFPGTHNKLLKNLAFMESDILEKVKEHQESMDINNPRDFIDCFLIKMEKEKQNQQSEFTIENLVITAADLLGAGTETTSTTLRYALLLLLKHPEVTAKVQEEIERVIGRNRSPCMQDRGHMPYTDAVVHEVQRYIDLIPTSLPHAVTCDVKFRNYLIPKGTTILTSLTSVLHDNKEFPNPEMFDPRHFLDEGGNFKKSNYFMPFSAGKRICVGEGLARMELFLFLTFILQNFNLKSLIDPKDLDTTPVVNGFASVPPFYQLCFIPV

SMILES	IC50 [1]	IC50 (Estrogen receptor beta)	pIC50 (Progesterone receptor)	pKi (Progesterone receptor)	IC50 [2]	Ki [2]	IC50 [3]	Ki [3]	IC50 (Endothelin-1 receptor)	IC50 (Cytochrome P450 2C19)	Ki (Cytochrome P450 2C19)	IC50 (Progesterone receptor)	pIC50 ([1]; read-out: IC50)	pIC50 [3]
C#C[C@]1(O)CC[C@H]2[C@@H]3[C@H](C)CC4=C(CCC(=O)C4)[C@H]3CC[C@@]21C [TIBOLONE]	Not Active	Not Active	6.66	7.54	Not Active	Not Active	Not Active	Not Active	Not Active					
Oc1ccc(/C=C/c2cc(O)cc(O)c2)cc1 [RESVERATROL]	Not Active				Not Active	Not Active	Not Active	Not Active	Not Active					
Cc1ccnc(NS(=O)(=O)c2ccc(N)cc2)n1 [SULFAMERAZINE]	Not Active				Not Active	Not Active	Not Active	Not Active	Not Active	Not Active	Not Active	Not Active		
C[N+]1(C)[C@@H]2C[C@@H](OC(=O)[C@H](CO)c3ccccc3)C[C@H]1[C@@H]1O[C@@H]12.[Br-] [METHSCOPOLAMINE BROMIDE]	Not Active				Not Active	Not Active	Not Active	Not Active	Not Active	Not Active	Not Active	Not Active		
OC[C@@H](O)[C@@H](O)[C@H](O)[C@H](O)CO [MANNITOL]	Not Active				Not Active	Not Active	Not Active	Not Active	Not Active	Not Active	Not Active	Not Active		
CC1=C(/C=C/C(C)=C/C=C/C(C)=C/C(=O)O)C(C)(C)CCC1 [TRETINOIN]	Not Active				Not Active	Not Active	Not Active	Not Active	Not Active	Not Active	Not Active	Not Active		
CCN(CC)N=O [N-NITROSODIETHYLAMINE]	Not Active				Not Active	Not Active	Not Active	Not Active	Not Active	Not Active	Not Active	Not Active		
Cc1cc2c(s1)Nc1ccccc1N=C2N1CCN(C)CC1 [OLANZAPINE]	Not Active								Not Active	Not Active	Not Active	Not Active		
Cc1nnc(NS(=O)(=O)c2ccc(N)cc2)s1 [SULFAMETHIZOLE]	Not Active				Not Active	Not Active	Not Active	Not Active	Not Active	Not Active	Not Active	Not Active		
CC#C[C@]1(O)CC[C@H]2[C@@H]3CCC4=CC(=O)CCC4=C3[C@@H](c3ccc(N(C)C)cc3)C[C@@]21C [MIFEPRISTONE]	Not Active	Not Active			Not Active	Not Active	Not Active	Not Active	Not Active	Not Active	Not Active			
CO[C@@H]1[C@@H](OC)[C@H](C)[C@@](O)(CC(=O)O)O[C@H]1[C@H](C)[C@H]1O[C@@]2(CC[C@@](C)([C@H]3CC[C@@](C)([C@@H]4O[C@@H]([C@H]5O[C@](C)(O)[C@H](C)C[C@@H]5C)C[C@@H]4O[C@@H]4C[C@H](OC)[C@@H](OC)[C@H](C)O4)O3)O2)C[C@H](O)[C@H]1C.N [MADURAMICIN]	Not Active				Not Active	Not Active	Not Active	Not Active	Not Active	Not Active	Not Active	Not Active		
CNCCCC12CCC(c3ccccc31)c1ccccc12 [MAPROTILINE]	Not Active	Not Active							Not Active			Not Active		
O=C(c1ccccc1)c1ccc2n1CCC2C(=O)O (configuration not stated) [KETOROLAC]	Not Active				Not Active	Not Active	Not Active	Not Active	Not Active	Not Active	Not Active	Not Active		
CCC(C)(C)C(=O)O[C@H]1C[C@@H](C)C=C2C=C[C@H](C)[C@H](CC[C@@H]3C[C@@H](O)CC(=O)O3)[C@H]21 [SIMVASTATIN]		Not Active			Not Active	Not Active	Not Active	Not Active	Not Active			Not Active		
CC(Cl)(Cl)Cl [TRICHLOROETHANE]	Not Active				Not Active	Not Active	Not Active	Not Active	Not Active	Not Active	Not Active	Not Active		
Cc1cccc(C)c1NC(=O)C(C)N (configuration not stated) [TOCAINIDE]	Not Active	Not Active			Not Active	Not Active	Not Active	Not Active	Not Active	Not Active	Not Active			
O=C(OC[C@H]1O[C@@H](OC(=O)c2cc(O)c(O)c(OC(=O)c3cc(O)c(O)c(O)c3)c2)[C@H](OC(=O)c2cc(O)c(O)c(OC(=O)c3cc(O)c(O)c(O)c3)c2)[C@@H](OC(=O)c2cc(O)c(O)c(OC(=O)c3cc(O)c(O)c(O)c3)c2)[C@@H]1OC(=O)c1cc(O)c(O)c(OC(=O)c2cc(O)c(O)c(O)c2)c1)c1cc(O)c(O)c(OC(=O)c2cc(O)c(O)c(O)c2)c1 [TANNIC ACID]					Not Active	Not Active			Not Active	Not Active	Not Active	Not Active	5.50	6.15
Cc1[nH]c(=O)c(C#N)cc1-c1ccncc1 [MILRINONE]	Not Active	Not Active			Not Active	Not Active			Not Active					6.02
CN(C)CCC=C1c2ccccc2COc2ccccc21 [DOXEPIN]	Not Active								Not Active	Not Active	Not Active	Not Active		
COC(=O)Nc1nc2ccc(C(=O)c3ccccc3)cc2[nH]1 [MEBENDAZOLE]	Not Active				Not Active	Not Active	Not Active	Not Active	Not Active	Not Active	Not Active	Not Active		
CC(=O)O[C@]1(C(C)=O)CC[C@H]2[C@@H]3C[C@H](C)C4=CC(=O)CC[C@]4(C)[C@H]3CC[C@@]21C [MEDROXYPROGESTERONE ACETATE]	Not Active		8.65	9.53	Not Active	Not Active	Not Active	Not Active	Not Active	Not Active	Not Active			
CC(O)C(=O)O (configuration not stated) [LACTIC ACID]	Not Active				Not Active	Not Active	Not Active	Not Active	Not Active	Not Active	Not Active	Not Active		
